In ChEMBL document CHEMBL3739381, “Evaluation of the anti-inflammatory/chondroprotective activity of aldose reductase inhibitors in human chondrocyte cultures” (Medchemcomm, 2015) one finds inhibition, Activity and IC50 data, which are given here for eight compounds.

pIC50: −log10 of the molar value. Activity calls are given as the source filed them. No cut-off for these calls is given here.

For data set [1], the species on record is Homo sapiens. The experiment in a line: Anti-inflammatory in human articular chondrocytes assessed as inhibition of IL-1beta-induced reduction of GAG level after 72 hrs by spectrophotometry analysis. It is filed as functional, cell-based.
The species entered for data set [2] is Homo sapiens. Briefly: Anti-inflammatory in human articular chondrocytes assessed as inhibition of IL-1beta-induced NFkappa-B p65 production at 2.5 to 10 uM after 72 hrs by Western blot analysis. The class given is functional, cell-based.
The species entered for data set [3] is Homo sapiens. Briefly: Anti-inflammatory in human articular chondrocytes assessed as inhibition of IL-1beta-induced ICAM-1 production at 2.5 to 10 uM after 72 hrs by Western blot analysis. The class given is functional, cell-based.
Data set [4] is described as follows: Cytotoxicity against human articular chondrocytes assessed as cell viability at 2.5 to 10 uM by MTT assay. On the technique in general: Tetrazolium assays rely on reduction of a dye to a coloured formazan, in cell work by metabolically active cells.
The species entered for data set [5] is Homo sapiens. The experiment in a line: Anti-inflammatory in human articular chondrocytes assessed as inhibition of IL-1beta-induced nitrite production after 72 hrs by Griess assay. The class given is functional, cell-based.
Data set [6] can be described thus: Antioxidant activity of the compound in AAPH solution assessed as trolox equivalents for reduction of oxidative degradation by ORAC assay. It is filed as physicochemical.
The target of the next data set is Stromelysin-1 (Homo sapiens, UniProt P08254). The experiment in a line: Inhibition of MMP3 (unknown origin) using Pro-Leu-Gly-Leu-Dpa-Ala-Arg-NH2 as substrate after 3 mins by fluorimetric assay. The conditions noted are these: for pIC50: read-out: IC50.
The next data set has as its target Collagenase 3 (Homo sapiens, UniProt P45452). The experiment in a line: Inhibition of MMP13 (unknown origin) using Pro-Leu-Gly-Leu-Dpa-Ala-Arg-NH2 as substrate after 3 mins by fluorimetric assay.

Stromelysin-1, sequence (P08254 whole entry): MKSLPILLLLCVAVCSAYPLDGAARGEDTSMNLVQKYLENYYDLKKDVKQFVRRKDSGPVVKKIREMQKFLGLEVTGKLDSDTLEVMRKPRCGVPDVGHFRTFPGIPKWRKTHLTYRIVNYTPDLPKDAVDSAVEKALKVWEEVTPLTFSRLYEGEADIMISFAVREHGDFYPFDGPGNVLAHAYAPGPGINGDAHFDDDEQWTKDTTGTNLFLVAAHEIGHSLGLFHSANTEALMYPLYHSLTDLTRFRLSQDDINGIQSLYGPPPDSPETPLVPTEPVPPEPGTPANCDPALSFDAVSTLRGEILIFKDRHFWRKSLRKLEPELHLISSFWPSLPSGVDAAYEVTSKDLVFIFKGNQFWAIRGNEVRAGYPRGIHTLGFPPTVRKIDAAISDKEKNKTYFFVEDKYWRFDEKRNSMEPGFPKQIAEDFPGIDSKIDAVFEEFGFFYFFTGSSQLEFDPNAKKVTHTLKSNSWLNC

As to `O=C(O)CN1C(=O)/C(=C/c2ccc(Oc3ccccc3)cc2)SC1=S`, the inhibition entry in the data set listed under Homo sapiens [1] and in the data set filed under Homo sapiens [5] was “Dose-dependent effect” in each case. For the same compound, the inhibition result in the data set listed under Homo sapiens [2] and in the data set filed under Homo sapiens [3] was “Active” in each case. For the same compound, the Activity entry in data set [4] was “Non-toxic”; in data set [6], 0.76 µM. Besides, the negative logarithm of the IC50 (pIC50) at Stromelysin-1 was 5.05; against Collagenase 3, 5.42.

With `O=C1NC(=S)S/C1=C\c1cccc(Oc2ccccc2)c1`, the inhibition result in the data set listed under Homo sapiens [1] and in the data set listed under Homo sapiens [5] was “Dose-dependent effect” throughout. For the same compound, the inhibition entry in the data set listed under Homo sapiens [2] and in the data set listed under Homo sapiens [3] was “Active” in each case. The Activity entry in data set [4] is “Non-toxic”; in data set [6] it was 0.39 µM. Moreover, the values for the negative-log IC50 (pIC50) at Stromelysin-1 and against Collagenase 3 were 4.76 and 4.26, respectively.

With `O=C(O)CN1C(=O)/C(=C/c2ccc(OCc3ccccc3)cc2)SC1=S`, the inhibition entry in the data set filed under Homo sapiens [1] and in the data set filed under Homo sapiens [5] was “Dose-dependent effect” in each case. Moreover, the inhibition entry in the data set listed under Homo sapiens [2] and in the data set listed under Homo sapiens [3] was “Active” throughout. Also, the Activity entry is “Non-toxic” in data set [4] and 1.078 µM in data set [6]. For the same compound, the negative logarithm of the IC50 (pIC50) at Stromelysin-1 was 4.23; against Collagenase 3 it was 5.16.

On to `O=C(O)CN1C(=O)/C(=C/c2cccc(OCc3ccccc3)c2)SC1=S`, for which the inhibition entry in the data set listed under Homo sapiens [1] and in the data set filed under Homo sapiens [5] was “Dose-dependent effect” each time. Also, the inhibition result in the data set filed under Homo sapiens [2] and in the data set filed under Homo sapiens [3] was “Active” each time. For the same compound, the Activity result was “Non-toxic” in data set [4] and 0.65 µM in data set [6]. Moreover, the values for the pIC50 on Stromelysin-1 and against Collagenase 3 were 5.38 and 5.80, respectively.

Take `O=C1NC(=S)S/C1=C\c1ccc(Oc2ccccc2)cc1`: the inhibition result in the data set filed under Homo sapiens [1] and in the data set listed under Homo sapiens [5] was “Dose-dependent effect” throughout. The inhibition result in the data set listed under Homo sapiens [2] and in the data set listed under Homo sapiens [3] was “Active” in each case. The results for the Activity entry in data set [4] and in data set [6] were “Non-toxic” and 0.52 µM, respectively. Further, the values for the pIC50 at Stromelysin-1 and at Collagenase 3 were 4.32 and 5.40, respectively.

Consider `O=C1NC(=S)S/C1=C\c1ccc(OCc2ccccc2)cc1`, for which the inhibition result in the data set filed under Homo sapiens [1] and in the data set listed under Homo sapiens [5] was “Dose-dependent effect” in each case. In addition, the inhibition result in the data set filed under Homo sapiens [2] and in the data set filed under Homo sapiens [3] was “Active” each time. Also, the Activity entry in data set [4] was “Non-toxic”; in data set [6], 0.6 µM. Further, the pIC50 at Stromelysin-1 is 4.11; against Collagenase 3 it was 6.19.

With `O=C(O)CN1C(=O)/C(=C/c2cccc(Oc3ccccc3)c2)SC1=S`, the inhibition result in the data set listed under Homo sapiens [1] and in the data set filed under Homo sapiens [5] was “Dose-dependent effect” in each case. The inhibition entry in the data set listed under Homo sapiens [2] and in the data set listed under Homo sapiens [3] was “Active” throughout. The Activity result in data set [4] was “Non-toxic”; in data set [6], 0.61 µM. For the same compound, the pIC50 was 4.85 on Stromelysin-1 and 5.33 at Collagenase 3.

Regarding `O=C1NC(=S)S/C1=C\c1cccc(OCc2ccccc2)c1`, the inhibition entry in the data set listed under Homo sapiens [1] and in the data set listed under Homo sapiens [5] was “Dose-dependent effect” throughout. In addition, the inhibition entry in the data set filed under Homo sapiens [2] and in the data set filed under Homo sapiens [3] was “Active” in each case. Also, the Activity entry in data set [4] is “Non-toxic”; in data set [6] it was 0.63 µM. Besides, on Stromelysin-1, the IC50 result is “Not Active”. The pIC50 at Collagenase 3 was 5.23.

One may read the pIC50 as −log10 of the IC50, conventionally taken in molar units.
